Experimental data published in US20190298775A1, “LIVER ORGANOID COMPOSITIONS AND METHODS OF MAKING AND USING SAME” (Children's Hospital Medical Center, priority 2016, published 2019).
Read-outs that look alike come from different tables or passages of the source. One block for each molecule: values may come before it.

How the values were obtained:
human liver organoids = details: for organoid viability / cell viability: human; for organoid viability: 130 μM; for cell viability: 50 μM
lipotoxic organoid model = experiment: Viability in organoids on vulnerable (lipotoxic, oleic acid) condition; assay type: cell-based, human
Experimental: Next, 50 μM of Troglitazone was treated with or without 50 μM NAC for 24h. […] Images were captured sequentially using fluorescent microscopy BZ-9000.

liver organoids = experiment: Lipid accumulation in organoids after oleic acid (BODIPY live staining); assay type: cell-based, human; details: 3 days after oleic acid treatment
Experimental: Images were captured sequentially using fluorescent microscopy BZ-9000. […] The following regents or kits were used: BODIPY® 493/503 for lipids (Thermo Fisher Scientific), and SiR Actin Kit for cytoskeleton (USA Scientific, FL, USA), CellROX® Green Reagent for ROS (Fisher Scientific), TMRM (Thermo Fisher Scientific) for mitochondria. […] ROS production, mitochondria size and number were analyzed by IMARIS 8.

[1] = test system: bile transport activity in liver organoids
[2] = test system: human iPSC-derived liver organoids; experiment: Albumin secretion of organoids (ELISA); assay type: cell-based
Experimental: On Day 7-8, definitive endoderm organoids with plated cells were gently pipetted to delaminate from dishes. Isolated spheroids were centrifuged at 800 rpm for 3 minutes and, after removing supernatant, embedded in 100% matrigel drop on the dishes. The plates were placed at 37° C. in an atmosphere of 5% CO2/95% air for 5-15 min. After the Matrigel was solidified, Advanced DMEM/F12 was added with B27, N2 and Retinoic acid (RA; Sigma, St. Louis, Mo.) 2 μM for 1-5 days. The media was replaced every other day. After RA treatment, organoids embedded in Matrigel drop were cultured in Hepatocyte culture medium (HCM Lonza, Walkersville, Md.) with 10 ng/mL hepatocyte growth factor (HGF; PeproTech, Rocky Hill, N.J.), 0.1 μM Dexamethasone (Dex; Sigma) and 20 ng/mL Oncostatin M (OSM; R&D Systems). Cultures for cell differentiation were maintained at 37° C. in an atmosphere of 5% CO2/95% air and the medium was replaced every 3 days. Around Day 20-30, organoids embedded in Matrigel drop were isolated by scratching and gentle pipetting for any analyses.
For measuring albumin, fibrinogen and complement factors secreted level of organoids, 200 μL of culture supernatant of organoids on Ultra-Low attachment 96 well plates (Corning) were collected. The culture supernatants were collected and stored at −80° C. until use. The supernatant was assayed with Human Albumin ELISA Quantitation Set (Bethyl Laboratories, Inc., TX, USA) and fibrinogen (Thermo Fisher Scientific) according to the manufacturer's instructions. For analyzing complement factors, supernatants were measured with Luminex System (Luminex Corporation, Austin, Tex.) according to the manufacturer's instructions. To calculate albumin production per the number of cells, the linear regression equation of cell numbers by diameter of an organoid was used. For measuring total bile acid secreted level intra-luminal organoids, fluid inside organoids was absorbed using microinjection Nanoject II (Drummond Scientific, Broomall, Pa., USA). Fluid absorbed was dilute in PBS and assayed with Total Bile Acid ELISA Kit (Antibodies-online, Inc., GA, USA). To calculate the volume of total bile acid, the number of cells in organoid was calculated using the linear regression equation in the same manner for albumin production and the molecular weight of cholic acid was used for calculation and comparing with volume in previous report.

Structure (SMILES): CCN(CC)C(=O)/C(C#N)=C/c1cc(O)c(O)c([N+](=O)[O-])c1 [Entacapone]
- organoid viability (human liver organoids; 24 h): 85%
- organoid viability (human liver organoids; 72 h): 64%

Structure (SMILES): CC(=O)N[C@@H](CS)C(=O)O [NAC, N-acetylcysteine]
- cell viability with NAC (rescue from Troglitazone toxicity) (lipotoxic organoid model; lipotoxic condition, 50 μM Troglitazone with 50 μM NAC, 24h): significantly improved

Structure (SMILES): CCCCCCCC/C=C\CCCCCCCC(=O)O [oleic acid]
- lipid accumulation in organoids (liver organoids): intense

Structure (SMILES): CN(CCOc1ccc(CC2SC(=O)NC2=O)cc1)c1ccccn1 (stereo not shown) [Rosiglitazone]
- toxicity in steatotic organoids (lipotoxic organoid model): vulnerable

- efflux of FD (bile transport inhibition) [1]: significantly decreased
Structure (SMILES): COc1ccccc1Oc1c(NS(=O)(=O)c2ccc(C(C)(C)C)cc2)nc(-c2ncccn2)nc1OCCO [Bosentan]

- efflux of FD (bile transport inhibition) [1]: significantly decreased
Structure (SMILES): CCc1nn(CCCN2CCN(c3cccc(Cl)c3)CC2)c(=O)n1CCOc1ccccc1 [Nefazodone]
- cell viability at 72 hours relative to TOL, DICLO and BOS (human liver organoids): significantly lowered

Structure (SMILES): CC1=C(/C=C/C(C)=C/C=C/C(C)=C/C(=O)O)C(C)(C)CCC1 [RA, retinoic acid]
- albumin secretion level of organoids at D25 ([2]; 1 day of RA treatment): 1160 ng/mL
- albumin secretion level of organoids at D25 ([2]; 2 days of RA treatment): 1054 ng/mL
- albumin secretion level of organoids at D25 ([2]; 3 days of RA treatment): 3092 ng/mL
- albumin secretion level of organoids at D25 ([2]; 4 days of RA treatment): 4709 ng/mL
- albumin secretion level of organoids at D25 ([2]; 5 days of RA treatment): 3865 ng/mL

- efflux of FD (bile transport inhibition) [1]: significantly decreased
Structure (SMILES): Cc1c(C)c2c(c(C)c1O)CCC(C)(COc1ccc(CC3SC(=O)NC3=O)cc1)O2 (stereo not shown) [Troglitazone]
- cell viability compared to control (lipotoxic organoid model; lipotoxic condition (800 μM oleic acid 3 days), 50 μM for 24h, p<0.05): −40%
- organoid morphology on lipotoxic condition (lipotoxic organoid model; lipotoxic condition, 24h): massive fragmentation of organoids
- cell viability at 72 hours relative to TOL, DICLO and BOS (human liver organoids): significantly lowered
- cell viability (human liver organoids; 24 h): 85%
- cell viability (human liver organoids; 72 h): 67%
